This series can be described thus: recombinant UMI read abundance after kanamycin selection (control-corrected) (log10(CPM+1)); higher = more efficient recombination; extreme values may be limits of the assay; sequences stand for … in AGTGCAGAGAAAATCGGCCAGTTTTCTCTGCCTGCAGTCCGCATGCCGTGGGACCCCTTGGGTTCTAACCTGTTGCCTAGATTTATGCAGCGGACTGCCTTTCTCCCAAAGTGATAAACCGG…AGGTTGGTTTCACT; site = the 11-nt donor. An outline of the steps:
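Each donor and donor-binding-loop pair was tracked by a 12-nt UMI on a plasmid carrying a promoterless kanamycin gene. With a second plasmid supplying a fixed target and T7-inducible IS621 bridge recombinase, the pool was plated in Escherichia coli on IPTG (0.07 mM) plus kanamycin or unselected. Sequencing of recombinant UMIs across the donor–target junction gave counts expressed as log10(CPM+1) after replicate averaging and control-derived scaling.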
On to “AGTGGCTCATGGACCGGTTTTCCCGGTAATCCGTATTTGAG (site AGTGGCTCTCT)”, for which the “recombinant UMI read abundance (log10)” value stood at 1.27.
To “AGTGGGACATGGACCGGTTTTCCCGGTAATCCGTATTTGGC (site AGTGGGACTGC)” belongs 2.85; to “AGTGTAGCATGGACCGGTTTTCCCGGTAATCCGTATTTGGG (site AGTGTAGCTCC)”, 0.00834; to “AGTGTGACATGGACCGGTTTTCCCGGTAATCCGTATTTGTA (site AGTGTGACTTA)”, 1.91.
The same measure for “AGTGTGTCATGGACCGGTTTTCCCGGTAATCCGTATTTGAC (site AATGTGTCTGT)”: 0.
To “AGTGTGTCATGGACCGGTTTTCCCGGTAATCCGTATTTGAC (site ACTGTGTCTGT)” belongs 0.812; to “AGTGTGTCATGGACCGGTTTTCCCGGTAATCCGTATTTGAC (site AGTGTGTCTGT)”, 1.98.
Turning to “AGTGTGTCATGGACCGGTTTTCCCGGTAATCCGTATTTGAC (site ATTGTGTCTGT)”, the “recombinant UMI read abundance (log10)” value was found to be 0.
To “AGTGTTACATGGACCGGTTTTCCCGGTAATCCGTATTTGCT (site AGTGTTACTAG)” belongs 2.01; to “AGTTAGACATGGACCGGTTTTCCCGGTAATCCGTATTTGCA (site AGGAAGACTTG)”, 1.51; to “AGTTAGACATGGACCGGTTTTCCCGGTAATCCGTATTTGCA (site AGTTAGACTTG)”, 1.93.
The same measure for “AGTTCAGCATGGACCGGTTTTCCCGGTAATCCGTATTTGGC (site AGTTCAGCTGC)”: 0.972; for “AGTTCCACATGGACCGGTTTTCCCGGTAATCCGTATTTGGC (site AGTTCCACTGC)”: 1.42.
Regarding “AGTTCCACATGGACCGGTTTTCCCGGTAATCCGTATTTGTA (site AGTTCCACTTA)”, the “recombinant UMI read abundance (log10)” value is 0.751.
Take “AGTTGGTCATGGACCGGTTTTCCCGGTAATCCGTATTTGAA (site AGTTGGTCTTT)”: the “recombinant UMI read abundance (log10)” value came out at 0.435.
To “AGTTTCGCATGGACCGGTTTTCCCGGTAATCCGTATTTGGT (site AGTTTCGCTAC)” belongs 0.564; to “ATAAGGCCATGGACCGGTTTTCCCGGTAATCCGTATTTGAT (site ATAAGGCCTAT)”, 0.221.
Take “ATAAGGCCATGGACCGGTTTTCCCGGTAATCCGTATTTGAT (site ATAAGGCCTCT)”: the “recombinant UMI read abundance (log10)” value worked out at 0.00711.
On to “ATAAGGCCATGGACCGGTTTTCCCGGTAATCCGTATTTGAT (site ATAAGGCCTGT)”, for which the “recombinant UMI read abundance (log10)” value was determined as 0.
Consider “ATAAGGCCATGGACCGGTTTTCCCGGTAATCCGTATTTGAT (site ATAAGGCCTTT)”, for which the “recombinant UMI read abundance (log10)” value was 0.0201.
The same measure for “ATAATGCCATGGACCGGTTTTCCCGGTAATCCGTATTTGAC (site ATAAAGCCTGT)”: 0.589; for “ATAATGCCATGGACCGGTTTTCCCGGTAATCCGTATTTGAC (site ATAACGCCTGT)”: 0.155.
The same measure for “ATAATGCCATGGACCGGTTTTCCCGGTAATCCGTATTTGAC (site ATAAGGCCTGT)”: 0; for “ATAATGCCATGGACCGGTTTTCCCGGTAATCCGTATTTGAC (site ATAATGCCTGT)”: 2.03.
To “ATACCCACATGGACCGGTTTTCCCGGTAATCCGTATTTGAC (site ATACCCACTGT)” belongs 2.65; to “ATACGCACATGGACCGGTTTTCCCGGTAATCCGTATTTGAA (site ATACGCACTTT)”, 1.55.
Consider “ATACGCACATGGACCGGTTTTCCCGGTAATCCGTATTTGTT (site ATACGCACTAA)”, for which the “recombinant UMI read abundance (log10)” value stood at 1.29.
To “ATACTATCATGGACCGGTTTTCCCGGTAATCCGTATTTGAC (site ATACTATCTGT)” belongs 3.39.
To “ATACTATCATGGACCGGTTTTCCCGGTAATCCGTATTTGAC (site CTAGTATCTGT)” belongs 0; to “ATAGGCCCATGGACCGGTTTTCCCGGTAATCCGTATTTGAA (site ATAGGCCCTTT)”, 0.215.
The same measure for “ATAGGGCCATGGACCGGTTTTCCCGGTAATCCGTATTTGAC (site ATAAGGCCTGT)”: 1.44.
For the sequence “ATAGGGCCATGGACCGGTTTTCCCGGTAATCCGTATTTGAC (site ATACGGCCTGT)”, the “recombinant UMI read abundance (log10)” value was found to be 0.
The same measure for “ATAGGGCCATGGACCGGTTTTCCCGGTAATCCGTATTTGAC (site ATAGGGCCTGT)”: 0; for “ATAGGGCCATGGACCGGTTTTCCCGGTAATCCGTATTTGAC (site ATATGGCCTGT)”: 0.
To “ATAGGTCCATGGACCGGTTTTCCCGGTAATCCGTATTTGTT (site ATAGGTCCTAA)” belongs 0.95; to “ATAGGTGCATGGACCGGTTTTCCCGGTAATCCGTATTTGTC (site ATAGGTGCTGA)”, 2.7; to “ATAGTTCCATGGACCGGTTTTCCCGGTAATCCGTATTTGGA (site ATAGTTCCTTC)”, 0.223.
Turning to “ATATATACATGGACCGGTTTTCCCGGTAATCCGTATTTGAC (site ATATATACTGT)”, the “recombinant UMI read abundance (log10)” value came to 2.65.
The same measure for “ATATATACATGGACCGGTTTTCCCGGTAATCCGTATTTGAC (site ATCTATACTGT)”: 0.727; for “ATATATACATGGACCGGTTTTCCCGGTAATCCGTATTTGAC (site ATGTATACTGT)”: 1.62.
In the case of “ATATATACATGGACCGGTTTTCCCGGTAATCCGTATTTGAC (site ATTTATACTGT)”, the “recombinant UMI read abundance (log10)” value was found to be 0.227.
“ATATCAACATGGACCGGTTTTCCCGGTAATCCGTATTTGTA (site ATATCAACTTA)”: the “recombinant UMI read abundance (log10)” value was determined as 1.61.
For “ATATGAACATGGACCGGTTTTCCCGGTAATCCGTATTTGAC (site ATATGAACTGT)”, the “recombinant UMI read abundance (log10)” value turned out to be 2.9.
Regarding “ATATTTGCATGGACCGGTTTTCCCGGTAATCCGTATTTGAC (site ATATTTGCTGT)”, the “recombinant UMI read abundance (log10)” value is 2.1.
Regarding “ATCACACCATGGACCGGTTTTCCCGGTAATCCGTATTTGTC (site ATCACACCTGA)”, the “recombinant UMI read abundance (log10)” value was found to be 0.
“ATCACAGCATGGACCGGTTTTCCCGGTAATCCGTATTTGGG (site ATCACAGCTCC)”: the “recombinant UMI read abundance (log10)” value came to 0.00407.
The same measure for “ATCACCTCATGGACCGGTTTTCCCGGTAATCCGTATTTGCT (site ATCACCTCTAG)”: 2.75.
To “ATCCAAACATGGACCGGTTTTCCCGGTAATCCGTATTTGAG (site ATCCAAACTCT)” belongs 1.6.
The same measure for “ATCCAAACATGGACCGGTTTTCCCGGTAATCCGTATTTGAG (site ATCCAACCTCT)”: 0.01; for “ATCCAAACATGGACCGGTTTTCCCGGTAATCCGTATTTGAG (site ATCCAAGCTCT)”: 0.432; for “ATCCAAACATGGACCGGTTTTCCCGGTAATCCGTATTTGAG (site ATCCAATCTCT)”: 0.352.
Consider “ATCCAACCATGGACCGGTTTTCCCGGTAATCCGTATTTGAG (site ATCCAAACTCT)”, for which the “recombinant UMI read abundance (log10)” value came out at 0.0118.

Source of the values: the supplement of paper PMC11208160.
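Further: IS621 bridge recombinase in Escherichia coli cells against a fixed T5 target plasmid.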
